Columns and labels:
Assay type in all cases: in vivo
[1] = tested on: Italian ryegrass (Lolium multiflorum); assay: Test C pre-/postemergence plant response; conditions: Preemergence
In short: (§1)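 Pre/post spray; solvent blend non-phytotoxic, with surfactant; post stage 1–4 leaves (2–18 cm); controlled environment 15–25 d; visual score 0–100 relative to controls, 100 = complete control.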

[2] = tested on: spring wheat (Triticum aestivum); assay: Test C pre-/postemergence plant response; conditions: Preemergence
In short: as §1

[3] = tested on: winter wheat (Triticum aestivum); assay: Test C pre-/postemergence plant response; conditions: Preemergence
In short: as §1

[4] = tested on: annual bluegrass (Poa annua); assay: Test C pre-/postemergence plant response; conditions: Preemergence
In short: as §1

[5] = tested on: windgrass (Apera spica-venti); assay: Test C pre-/postemergence plant response; conditions: Preemergence
In short: as §1

[6] = tested on: canarygrass (Phalaris minor); assay: Test C pre-/postemergence plant response; conditions: Preemergence
In short: as §1

[7] = tested on: downy bromegrass (Bromus tectorum); assay: Test C pre-/postemergence plant response; conditions: Preemergence
In short: as §1

[8] = tested on: green foxtail (Setaria viridis); assay: Test C pre-/postemergence plant response; conditions: Preemergence
In short: as §1

wild oat (Avena fatua) = assay: Test C pre-/postemergence plant response; conditions: Preemergence
In short: as §1

[9] = tested on: blackgrass (Alopecurus myosuroides); assay: Test C pre-/postemergence plant response; conditions: Preemergence
In short: as §1

[10] = tested on: pigweed (Amaranthus retroflexus); assay: Test C pre-/postemergence plant response; conditions: Preemergence
In short: as §1

[11] = tested on: winter barley (Hordeum vulgare); assay: Test C pre-/postemergence plant response; conditions: Preemergence
In short: as §1

[12] = tested on: wild mustard (Sinapis arvensis); assay: Test C pre-/postemergence plant response; conditions: Preemergence
In short: as §1

[13] = tested on: Italian ryegrass (Lolium multiflorum); assay: Test B pre-/postemergence plant response; conditions: for Ryegrass, Italian plant response rating: 8 g ai/ha
In short: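 Visual scoring from 0 (no effect) to 100 (complete control) against untreated controls was done 13 to 15 days after greenhouse treatment. Chemicals were formulated in a surfactant-containing non-phytotoxic solvent and applied to soil preemergence or to 1- to 4-leaf (2-18 cm) plants postemergence.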

[14] = 8 g ai/ha, scale 0 to 100 (0 no effect, 100 complete control)
[15] = 16 g ai/ha, scale 0 to 100 (0 no effect, 100 complete control)
[16] = 31 g ai/ha, scale 0 to 100 (0 no effect, 100 complete control)
[17] = 62 g ai/ha, scale 0 to 100, 0 no effect, 100 complete control
[18] = Postemergence, 16 g ai/ha, scale 0 to 100
[19] = Postemergence, 62 g ai/ha, scale 0 to 100, 0 no effect, 100 complete control
[20] = Preemergence, 16 g ai/ha, scale 0 to 100 (0 no effect, 100 complete control)
[21] = Preemergence, 31 g ai/ha, scale 0 to 100 (0 no effect, 100 complete control)
[22] = Preemergence, 62 g ai/ha, scale 0 to 100

Cc1cc(-c2ccc(Cl)cc2)nn1-c1c(OC(=O)c2ccccc2)cnn(C)c1=O [Compound 48]
Plant response rating, Ryegrass, Italian [1, 14]: 40 | Plant response rating, Ryegrass, Italian [1, 15]: 40 | Plant response rating, Ryegrass, Italian [1, 16]: 90 | Plant response rating, Ryegrass, Italian [1, 17]: 100 | Plant response rating, Wheat, Spring [2, 14]: 0 | Plant response rating, Wheat, Spring [2, 15]: 35 | Plant response rating, Wheat, Spring [2, 16]: 60 | Plant response rating, Wheat, Spring [2, 17]: 75 | Plant response rating, Wheat, Winter [3, 14]: 0 | Plant response rating, Wheat, Winter [3, 15]: 0 | Plant response rating, Wheat, Winter [3, 16]: 20 | Plant response rating, Wheat, Winter [3, 17]: 70 | Plant response rating, Bluegrass [4, 14]: 0 | Plant response rating, Bluegrass [4, 15]: 0 | Plant response rating, Bluegrass [4, 16]: 0 | Plant response rating, Bluegrass [4, 17]: 0 | Plant response rating, Windgrass [5, 14]: 0 | Plant response rating, Windgrass [5, 15]: 0 | Plant response rating, Windgrass [5, 16]: 35 | Plant response rating, Windgrass [5, 17]: 80 | Plant response rating, Canarygrass [6, 14]: 0 | Plant response rating, Canarygrass [6, 15]: 0 | Plant response rating, Canarygrass [6, 16]: 85 | Plant response rating, Canarygrass [6, 17]: 95 | Plant response rating, Bromegrass, Downy [7, 14]: 0 | Plant response rating, Bromegrass, Downy [7, 15]: 0 | Plant response rating, Bromegrass, Downy [7, 16]: 0 | Plant response rating, Bromegrass, Downy [7, 17]: 40 | Plant response rating, Foxtail, Green [8, 14]: 35 | Plant response rating, Foxtail, Green [8, 15]: 95 | Plant response rating, Foxtail, Green [8, 16]: 100 | Plant response rating, Foxtail, Green [8, 17]: 100 | Plant response rating, Oat, Wild (wild oat (Avena fatua); [14]): 0 | Plant response rating, Oat, Wild (wild oat (Avena fatua); [15]): 0 | Plant response rating, Oat, Wild (wild oat (Avena fatua); [16]): 50 | Plant response rating, Oat, Wild (wild oat (Avena fatua); [17]): 70 | Plant response rating, Blackgrass [9, 14]: 35 | Plant response rating, Blackgrass [9, 15]: 50 | Plant response rating, Blackgrass [9, 16]: 65 | Plant response rating, Blackgrass [9, 17]: 98 | Plant response rating, Pigweed [10, 14]: 0 | Plant response rating, Pigweed [10, 15]: 0 | Plant response rating, Pigweed [10, 16]: 0 | Plant response rating, Pigweed [10, 17]: 0 | Plant response rating, Barley, Winter [11, 14]: 0 | Plant response rating, Barley, Winter [11, 15]: 0 | Plant response rating, Barley, Winter [11, 16]: 0 | Plant response rating, Barley, Winter [11, 17]: 70 | Plant response rating, Mustard, Wild [12, 16]: 0 | Plant response rating, Mustard, Wild [12, 17]: 0 | Ryegrass, Italian plant response rating ([13]; postemergence, 0-100 scale): 40 | Plant response rating, Ryegrass, Italian [13, 18]: 90 | Plant response rating, Ryegrass, Italian ([13]; Postemergence, 31 g ai/ha, scale 0 to 100): 100 | Plant response rating, Ryegrass, Italian [13, 19]: 100 | Plant response rating, Ryegrass, Italian [13, 20]: 85 | Plant response rating, Ryegrass, Italian [13, 21]: 100 | Plant response rating, Ryegrass, Italian [13, 22]: 100 | Ryegrass, Italian plant response rating ([13]; Preemergence, scale 0 to 100): 85

CCc1cc(-c2ccc(Cl)cc2)nn1-c1c(OC(=O)OC(C)C)cnn(C)c1=O [Compound 41]
Plant response rating, Ryegrass, Italian [1, 14]: 100 | Plant response rating, Ryegrass, Italian [1, 15]: 100 | Plant response rating, Ryegrass, Italian [1, 16]: 100 | Plant response rating, Ryegrass, Italian [1, 17]: 100 | Plant response rating, Wheat, Spring [2, 14]: 0 | Plant response rating, Wheat, Spring [2, 15]: 50 | Plant response rating, Wheat, Spring [2, 16]: 75 | Plant response rating, Wheat, Spring [2, 17]: 95 | Plant response rating, Wheat, Winter [3, 14]: 0 | Plant response rating, Wheat, Winter [3, 15]: 40 | Plant response rating, Wheat, Winter [3, 16]: 60 | Plant response rating, Wheat, Winter [3, 17]: 98 | Plant response rating, Bluegrass [4, 14]: 0 | Plant response rating, Bluegrass [4, 15]: 0 | Plant response rating, Windgrass [5, 14]: 65 | Plant response rating, Windgrass [5, 15]: 98 | Plant response rating, Windgrass [5, 16]: 100 | Plant response rating, Windgrass [5, 17]: 100 | Plant response rating, Canarygrass [6, 14]: 50 | Plant response rating, Canarygrass [6, 15]: 80 | Plant response rating, Canarygrass [6, 16]: 98 | Plant response rating, Canarygrass [6, 17]: 100 | Plant response rating, Bromegrass, Downy [7, 14]: 0 | Plant response rating, Bromegrass, Downy [7, 15]: 50 | Plant response rating, Bromegrass, Downy [7, 16]: 50 | Plant response rating, Bromegrass, Downy [7, 17]: 80 | Plant response rating, Foxtail, Green [8, 14]: 98 | Plant response rating, Foxtail, Green [8, 15]: 100 | Plant response rating, Foxtail, Green [8, 16]: 100 | Plant response rating, Foxtail, Green [8, 17]: 100 | Plant response rating, Oat, Wild (wild oat (Avena fatua); [14]): 65 | Plant response rating, Oat, Wild (wild oat (Avena fatua); [15]): 75 | Plant response rating, Oat, Wild (wild oat (Avena fatua); [16]): 95 | Plant response rating, Oat, Wild (wild oat (Avena fatua); [17]): 95 | Plant response rating, Blackgrass [9, 14]: 100 | Plant response rating, Blackgrass [9, 15]: 100 | Plant response rating, Blackgrass [9, 16]: 100 | Plant response rating, Blackgrass [9, 17]: 100 | Plant response rating, Pigweed [10, 14]: 0 | Plant response rating, Pigweed [10, 15]: 0 | Plant response rating, Pigweed [10, 16]: 0 | Plant response rating, Pigweed [10, 17]: 0 | Plant response rating, Barley, Winter [11, 14]: 10 | Plant response rating, Barley, Winter [11, 15]: 25 | Plant response rating, Barley, Winter [11, 16]: 70 | Plant response rating, Barley, Winter [11, 17]: 80 | Plant response rating, Mustard, Wild [12, 14]: 0 | Plant response rating, Mustard, Wild [12, 16]: 0 | Plant response rating, Mustard, Wild [12, 17]: 0 | Ryegrass, Italian plant response rating ([13]; postemergence, 0-100 scale): 90 | Plant response rating, Ryegrass, Italian [13, 18]: 98 | Plant response rating, Ryegrass, Italian ([13]; Postemergence, 31 g ai/ha, scale 0 to 100, 0 no effect, 100 complete control): 100 | Plant response rating, Ryegrass, Italian [13, 19]: 100 | Plant response rating, Ryegrass, Italian [13, 20]: 85 | Plant response rating, Ryegrass, Italian [13, 21]: 100 | Plant response rating, Ryegrass, Italian [13, 22]: 100 | Ryegrass, Italian plant response rating ([13]; Preemergence, scale 0 to 100): 85

Source: US20100267561A1, “HERBICIDAL PYRIDAZINONE DERIVATIVES” (priority 2007, published 2010)
